Consider 18 compounds from patent US12448388B2, “PRMT5 inhibitors and uses thereof” (Gilead Sciences, Inc., priority 2023, dated 2025).

pEC50: −log10 of the molar value. Where two headings read alike, the source gives them in different places.

Usually CC50 stands for the concentration giving 50% cytotoxicity. Usually pEC50 stands for −log10 of the EC50, conventionally taken in molar units. Low readings indicate a high EC50, high ones a low EC50.

Assay [1] concerns HCT116 MTAP-deleted cell lines. Briefly: Cell viability assay (CellTiter-Glo, 7 days), HCT116 MTAP-deleted. Type of assay: cell-based. The settings on record: Homo sapiens, HCT-116. The essentials: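 HCT116 MTAP-deleted and wild-type cells exposed to serially diluted compound for 7 days at 37 °C, 5% CO2. Viability read by CellTiter-Glo luminescence; CC50 derived per line, with selectivity comparing WT to MTAP-deleted, limited solubility can inflate values marked *.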
On the technique in general: In ATP-based viability assays light output follows the ATP content of the culture.

The test system of assay [2] is Symmetric Di-methyl Arginine (SDMA) signal (PRMT5 inhibition) in HCT116 MTAP-deleted cells. Briefly: Symmetric di-methyl arginine image-based high content screen assay (SDMA assay), HCT116 MTAP-deleted. The settings on record: for EC50 selectivity: HCT116 WT versus HCT116 MTAP-deleted; for pEC50: Homo sapiens, HCT-116, HCT116 MTAP-deleted, class symbols. The assay is classed as cell-based. How it is done: Symmetric di-methyl arginine image-based high content screen assay (SDMA assay) was performed in HCT116 WT and HCT116 MTAP-deleted cell lines to measure Symmetric Di-methyl Arginine (SDMA) signal reduction after selective PRMT5 inhibition in the MTAP-deleted cells. Control compounds were analyzed in parallel each time for quality control.
Briefly, the same compound plates were generated as mentioned in the previous section of Cell viability assay on Day −1. On Day 0, 800 HCT WT or HCT116 MTAP-deleted cell were seeded in compound-containing 384 well plates (50 μl per well) in RPMI 1640 media supplemented with 10% heat inactivated fetal bovine serum, Glutamax and penicillin streptomycin using EL460 liquid dispenser 5 μl cassette (BioTek, part no. 7170011). After equilibrating the plate at room temperature, the cells were incubated for 3 days inside the sealed incubator set at 37° C. with 90% humidity and 5% C02.
On Day 3, the cells were fixed by adding 45 μl of 8% neutralized formalin solution to each well using EL460 liquid dispenser 5 μl cassette and the cells were incubated for 30 minutes at room temperature. The formalin solution was washed off with […] phosphate buffered saline (dPBS), the 0.1% Triton X-100 solution in dPBS was used to permeabilize the cells for 15 minutes at room temperature. The triton solution was aspirated, 50 μl of Odyssey Blocking buffer +0.05% Tween20 was added and the plate was incubated at room temperature for 30 minutes.
The blocking solution was removed, a 20 μl of SDMA antibody (Cell Signaling Technology, Cat no. 13222) diluted 1:500 in Odyssey Blocking buffer +0.05% Tween20 was added and the plate was incubated at 4° C. overnight. Next day, the primary SDME antibody solution was washed from each well three times with 0.05% Tween20 in dPBS (PBST).
A 30 μl of the secondary antibody, a Goat anti-Rabbit Alexa Fluor Plus 488 (Invitrogen, Cat no. PIA32731) was diluted 1:500 in Odyssey Blocking buffer +0.05% Tween20 and the plate was incubated for 1.5 hours in dark at room temperature. The secondary antibody solution was removed, 30 μl of 5 mg/ml DAPI solution diluted 1:2000 in dPBS was added and the plate was incubated for 30 minutes in dark at room temperature. The DAPI solution was aspirated and the wells were washed six times with dPBS.
The SDMA signal and DAPI signal per cell were counted using a Cellomics CX7 LZR instrument reading under 488 and 405 nm laser, respectively. The SDMA signal was quantified by mean average intensity per cell from Alexa Fluor Plus 488 after the cell was defined with DAPI. The EC50 values for each compound after 3 days of treatment were calculated using 4 parameter non-linear logistical curve fit.
For the SDMA assay i.e. EC50 shown in Table 3A: A: EC50≤1 nM, B: 1 nM<EC50≤5 nM, C: EC50>5 nM.

[3] abbreviates: cell viability, HCT116 MTAP-deleted, class symbols, read-out: CC50.

On to `CC(C)N(Cc1ccc(C(F)(F)F)cn1)C(=O)c1cc2c(cc1F)nc(N)c1cncn12` [Ff-7, 4-amino-7-fluoro-N-isopropyl-N-((5-(trifluoromethyl)pyridin-2-yl)methyl)imidazo[1,5-a]quinoxaline-8-carboxamide], for which the CC50 in assay [1] (setting [3]) was less than 100 nM. Further, in assay [2], the EC50 selectivity is listed as 33 and the pEC50 was no less than 9.00.

`CCN(C(=O)c1ccc2nc(N)c3cncn3c2c1)[C@@H]1COc2cc(C(F)(F)F)ccc21` [Ff-8, (S)-4-amino-N-ethyl-N-(6-(trifluoromethyl)-2,3-dihydrobenzofuran-3-yl)imidazo[1,5-a]quinoxaline-8-carboxamide]: the CC50 in assay [1] (setting [3]) was less than 100 nM. In assay [2], the EC50 selectivity stood at 299 and the pEC50 is no less than 9.00.

Take `CCN(C(=O)c1cc2c(cc1F)nc(N)c1cncn12)[C@@H]1COc2cc(C(F)(F)F)ccc21` [Ff-9, (S)-4-amino-N-ethyl-7-fluoro-N-(6-(trifluoromethyl)-2,3-dihydrobenzofuran-3-yl)imidazo[1,5-a]quinoxaline-8-carboxamide]: the CC50 in assay [1] (setting [3]) is less than 100 nM. Also, in assay [2], the EC50 selectivity amounted to 106 and the pEC50 was no less than 9.00.

The compound `CN(C(=O)c1cc2c(cc1Cl)nc(N)c1cncn12)[C@@H]1COc2cc(C(F)(F)F)ccc21` [Ff-10, (S)-4-amino-7-chloro-N-methyl-N-(6-(trifluoromethyl)-2,3-dihydrobenzofuran-3-yl)imidazo[1,5-a]quinoxaline-8-carboxamide] yielded a CC50 in assay [1] of less than 100 nM. In assay [2], this compound gave an EC50 selectivity of 88 and a pEC50 of no less than 9.00.

`CN(C(=O)c1ccc2nc(N)c3cncn3c2c1)[C@@H]1COc2cc(C(F)(F)F)ccc21` [Ff-11, (S)-4-amino-N-methyl-N-(6-(trifluoromethyl)-2,3-dihydrobenzofuran-3-yl)imidazo[1,5-a]quinoxaline-8-carboxamide]: the CC50 in assay [1] (setting [3]) was less than 100 nM. Also, in assay [2], the EC50 selectivity amounted to 352 and the pEC50 is no less than 9.00.

On to `CN(C(=O)c1cc2c(cc1F)nc(N)c1cncn12)[C@@H]1COc2cc(C(F)(F)F)ccc21` [Ff-12, (S)-4-amino-7-fluoro-N-methyl-N-(6-(trifluoromethyl)-2,3-dihydrobenzofuran-3-yl)imidazo[1,5-a]quinoxaline-8-carboxamide], for which the CC50 in assay [1] (setting [3]) is less than 100 nM. In assay [2], this compound gave an EC50 selectivity of 196 and a pEC50 of no less than 9.00.

For the compound `CN(C(=O)c1cc2c(cc1F)nc(N)c1cncn12)C1CCc2nc(C(F)(F)F)ccc21` (stereo not drawn) [Ff-13, 4-amino-7-fluoro-N-methyl-N-(2-(trifluoromethyl)-6,7-dihydro-5H-cyclopenta[b]pyridin-5-yl)imidazo[1,5-a]quinoxaline-8-carboxamide], in assay [1] (setting [3]), the CC50 was less than 100 nM. Besides, in assay [2], the EC50 selectivity amounted to 176 and the pEC50 was no less than 9.00.

`CN(C(=O)c1cc2c(cc1F)nc(N)c1cncn12)[C@@H]1COCc2cc(Br)ccc21` [Ff-14, (S)-4-amino-N-(7-bromoisochroman-4-yl)-7-fluoro-N-methylimidazo[1,5-a]quinoxaline-8-carboxamide]: the CC50 in assay [1] (setting [3]) is less than 100 nM. Besides, in assay [2], the EC50 selectivity was 241 and the pEC50 was no less than 9.00.

`Cc1ncc2c(N)nc3ccc(C(=O)N(C)[C@@H]4COc5cc(C#CC6CCCO6)ccc54)cc3n12` (stereo partly drawn) [Ff-17, 4-amino-N,1-dimethyl-N-((3S)-6-((tetrahydrofuran-2-yl)ethynyl)-2,3-dihydrobenzofuran-3-yl)imidazo[1,5-a]quinoxaline-8-carboxamide]: the half-maximal cytotoxic concentration (CC50) in assay [1] (setting [3]) lay in the range of 100 to 1000 nM. In assay [2], this compound had an EC50 selectivity of 253 and a pEC50 of 8.30 to 9.00.

On to `COC(C)(C)C#Cc1ccc2c(c1)OC[C@H]2N(C)C(=O)c1ccc2nc(N)c3cnc(C)n3c2c1` [Ff-18, (S)-4-amino-N-(6-(3-methoxy-3-methylbut-1-yn-1-yl)-2,3-dihydrobenzofuran-3-yl)-N,1-dimethylimidazo[1,5-a]quinoxaline-8-carboxamide], for which, in assay [1] (setting [3]), the CC50 fell in the range of 100 to 1000 nM. In assay [2], this compound showed an EC50 selectivity of 447 and a pEC50 of less than 8.30.

With `Cc1ncc2c(N)nc3ccc(C(=O)N(C)[C@@H]4COc5cc(C#CC6(O)CC6)ccc54)cc3n12` [Ff-19, (S)-4-amino-N-(6-((1-hydroxycyclopropyl)ethynyl)-2,3-dihydrobenzofuran-3-yl)-N,1-dimethylimidazo[1,5-a]quinoxaline-8-carboxamide], the CC50 in assay [1] (setting [3]) lay in the range of 100 to 1000 nM. In addition, in assay [2], the EC50 selectivity worked out at 129 and the pEC50 was less than 8.30.

Regarding `Cc1ncc2c(N)nc3ccc(C(=O)N(C)[C@@H]4COc5cc(C#CC6(C)COC6)ccc54)cc3n12` [Ff-20, (S)-4-amino-N,1-dimethyl-N-(6-((3-methyloxetan-3-yl)ethynyl)-2,3-dihydrobenzofuran-3-yl)imidazo[1,5-a]quinoxaline-8-carboxamide], in assay [1] (setting [3]), the CC50 was less than 100 nM. In addition, in assay [2], the EC50 selectivity is reported as 382 and the pEC50 is 8.30 to 9.00.

Take `Cc1ncc2c(N)nc3ccc(C(=O)N(C)[C@@H]4COc5nc(C(F)(F)F)ccc54)cc3n12` [Ff-21, (S)-4-amino-N,1-dimethyl-N-(6-(trifluoromethyl)-2,3-dihydrofuro[2,3-b]pyridin-3-yl)imidazo[1,5-a]quinoxaline-8-carboxamide]: the CC50 in assay [1] (setting [3]) lay in the range of 100 to 1000 nM. In assay [2], the EC50 selectivity amounted to 874 and the pEC50 was 8.30 to 9.00.

In the case of `CN(C(=O)c1cc2c(cc1F)nc(N)c1cncn12)[C@@H]1COc2nc(C(F)(F)F)ccc21` [Ff-22, (S)-4-amino-7-fluoro-N-methyl-N-(6-(trifluoromethyl)-2,3-dihydrofuro[2,3-b]pyridin-3-yl)imidazo[1,5-a]quinoxaline-8-carboxamide], the CC50 in assay [1] (setting [3]) was less than 100 nM. Further, in assay [2], the EC50 selectivity turned out to be 587 and the pEC50 was 8.30 to 9.00.

For the compound `Nc1nc2cc(F)c(C(=O)N(Cc3ccc(-c4cnn(C(F)(F)F)c4)cc3F)C34CC(C3)C4)cc2n2cncc12` [Ff-23, 4-amino-N-(bicyclo[1.1.1]pentan-1-yl)-7-fluoro-N-(2-fluoro-4-(1-(trifluoromethyl)-1H-pyrazol-4-yl)benzyl)imidazo[1,5-a]quinoxaline-8-carboxamide], the CC50 in assay [1] (setting [3]) is less than 100 nM. In assay [2], this compound had an EC50 selectivity of 48 and a pEC50 of 8.30 to 9.00.

As for `CN(Cc1ccc(-c2cnn(C(F)(F)F)c2)cc1F)C(=O)c1cc2c(cc1F)nc(N)c1cncn12` [Ff-24, 4-amino-7-fluoro-N-(2-fluoro-4-(1-(trifluoromethyl)-1H-pyrazol-4-yl)benzyl)-N-methylimidazo[1,5-a]quinoxaline-8-carboxamide], the CC50 in assay [1] (setting [3]) was 100 to 1000 nM. In assay [2], this compound had an EC50 selectivity of 1985 and a pEC50 of 8.30 to 9.00.

For `CCN(Cc1ccc(C(F)(F)F)cc1F)C(=O)c1ccc2nc(N)c3cncn3c2c1` [Ff-25, 4-amino-N-ethyl-N-[[2-fluoro-4-(trifluoromethyl)phenyl]methyl]imidazo[1,5-a]quinoxaline-8-carboxamide], the CC50 in assay [1] (setting [3]) was less than 100 nM. Besides, in assay [2], the EC50 selectivity is recorded as 312 and the pEC50 was 8.30 to 9.00.

In the case of `CCN(Cc1ccc(C(F)(F)F)cc1F)C(=O)c1cc2c(cc1F)nc(N)c1cncn12` [Ff-26, 4-amino-N-ethyl-7-fluoro-N-[[2-fluoro-4-(trifluoromethyl)phenyl]methyl]imidazo[1,5-a]quinoxaline-8-carboxamide], the CC50 in assay [1] (setting [3]) was less than 100 nM. In assay [2], the EC50 selectivity was found to be 210 and the pEC50 is no less than 9.00.
